Assay results published in PubChem BioAssay AID2060502 (Molecular Pharmacology Branch, DTP, NCI, 2025).

Test system: 885724-159-R-J1-PDC complex spheroid viability
Experiment: Anticancer human tumor 885724-159-R-J1-PDC patient-derived pancreatic adenocarcinoma cell line growth inhibition [GQUAD]
Conditions: for IC50: curve of first compound; for viability, T/C: stronger effect = lower value
Method in brief: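 Multi-cell-type spheroids of tumor cells with HUVEC and mesenchymal stem cells, treated with drug combinations. Concentrations descend in half-log steps from near clinical Cmax, or from 10 microM where Cmax is unknown; viability read-out.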

[1] = second compound 0.0316 µM, first compound 0.0316 µM
[2] = second compound 0.0316 µM, first compound 0.316 µM
[3] = second compound 0.1 µM, first compound 0.0316 µM
[4] = second compound 0.1 µM, first compound 0.316 µM
[5] = second compound 0.316 µM, first compound 0.0316 µM
[6] = second compound 0.316 µM, first compound 0.316 µM
[7] = second compound 1 µM, first compound 0.0316 µM
[8] = second compound 1 µM, first compound 0.316 µM
[9] = second compound 3.16 µM, first compound 0.0316 µM
[10] = second compound 3.16 µM, first compound 0.316 µM
[11] = second compound 10 µM, first compound 0.0316 µM
[12] = second compound 10 µM, first compound 0.316 µM
[13] = second compound 0.0316 µM, first compound 0.1 µM
[14] = second compound 0.0316 µM, first compound 1 µM
[15] = second compound 0.0316 µM, first compound 3.16 µM
[16] = second compound 0.0316 µM, first compound 10 µM
[17] = second compound 0.1 µM, first compound 0.1 µM
[18] = second compound 0.1 µM, first compound 1 µM
[19] = second compound 0.1 µM, first compound 3.16 µM
[20] = second compound 0.1 µM, first compound 10 µM
[21] = second compound 0.316 µM, first compound 0.1 µM
[22] = second compound 0.316 µM, first compound 1 µM
[23] = second compound 0.316 µM, first compound 3.16 µM
[24] = second compound 0.316 µM, first compound 10 µM
[25] = second compound 1 µM, first compound 0.1 µM
[26] = second compound 1 µM, first compound 1 µM
[27] = second compound 1 µM, first compound 3.16 µM
[28] = second compound 1 µM, first compound 10 µM
[29] = second compound 3.16 µM, first compound 0.1 µM
[30] = second compound 3.16 µM, first compound 1 µM
[31] = second compound 3.16 µM, first compound 3.16 µM
[32] = second compound 3.16 µM, first compound 10 µM
[33] = second compound 10 µM, first compound 0.1 µM
[34] = second compound 10 µM, first compound 1 µM
[35] = second compound 10 µM, first compound 3.16 µM
[36] = second compound 10 µM, first compound 10 µM
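Also: spheroids exposed to agents for seven days before readout.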
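For viability, T/C in this document: percent of vehicle control viability where 100% = DMSO wells.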

`CCc1c2c(nc3ccc(O)cc13)-c1cc3c(c(=O)n1C2)COC(=O)[C@]3(O)CC` + Cc1cnc(CNC(=O)c2c(=O)c3ccc(N4CCCN(C)CC4)nc3n3c2sc2ccccc23)cn1 showed an IC50 (second compound 0.0316 µM) of 0.0817 µM, an IC50 (second compound 0.1 µM) of 0.0418 µM and an IC50 (second compound 0.316 µM) of 0.0483 µM. For the same compound, the IC50 (second compound 1 µM) was 0.057 µM, the IC50 (second compound 3.16 µM) was 0.033 µM and the IC50 (second compound 10 µM) was 0.0326 µM. For the same compound, the viability, T/C (second compound 0.0316 µM, first compound 0.000999 µM) was 101%, the viability, T/C (second compound 0.0316 µM, first compound 0.00316 µM) was 97.1% and the viability, T/C (second compound 0.0316 µM, first compound 0.00999 µM) was 75.1%. It also gave a viability, T/C [1] of 66.2%, a viability, T/C (second compound 0.0316 µM, first compound 0.0999 µM) of 54.1% and a viability, T/C [2] of 9.27%. It also gave a viability, T/C (second compound 0.1 µM, first compound 0.000999 µM) of 114%, a viability, T/C (second compound 0.1 µM, first compound 0.00316 µM) of 90.5% and a viability, T/C (second compound 0.1 µM, first compound 0.00999 µM) of 68.8%. The viability, T/C [3] was 60.4%, the viability, T/C (second compound 0.1 µM, first compound 0.0999 µM) was 45.2% and the viability, T/C [4] was 7.81%. For the same compound, the viability, T/C (second compound 0.316 µM, first compound 0.000999 µM) was 93.2%, the viability, T/C (second compound 0.316 µM, first compound 0.00316 µM) was 82.7% and the viability, T/C (second compound 0.316 µM, first compound 0.00999 µM) was 72.2%. The viability, T/C [5] was 54.4%, the viability, T/C (second compound 0.316 µM, first compound 0.0999 µM) was 42.4% and the viability, T/C [6] was 4.89%. It also gave a viability, T/C (second compound 1 µM, first compound 0.000999 µM) of 77.2%, a viability, T/C (second compound 1 µM, first compound 0.00316 µM) of 78.6% and a viability, T/C (second compound 1 µM, first compound 0.00999 µM) of 63.8%. For the same compound, the viability, T/C [7] was 61.3%, the viability, T/C (second compound 1 µM, first compound 0.0999 µM) was 41.7% and the viability, T/C [8] was 0.87%. For the same compound, the viability, T/C (second compound 3.16 µM, first compound 0.000999 µM) was 73.9%, the viability, T/C (second compound 3.16 µM, first compound 0.00316 µM) was 72.1% and the viability, T/C (second compound 3.16 µM, first compound 0.00999 µM) was 57.8%. The viability, T/C [9] was 48.3%, the viability, T/C (second compound 3.16 µM, first compound 0.0999 µM) was 36.7% and the viability, T/C [10] was 0.45%. It also gave a viability, T/C (second compound 10 µM, first compound 0.000999 µM) of 66.5%, a viability, T/C (second compound 10 µM, first compound 0.00316 µM) of 69.6% and a viability, T/C (second compound 10 µM, first compound 0.00999 µM) of 53.6%. For the same compound, the viability, T/C [11] was 54.8%, the viability, T/C (second compound 10 µM, first compound 0.0999 µM) was 30.7% and the viability, T/C [12] was 0.45%.

Compound `COc1cc(C2c3cc4c(cc3C(OC3OC5COC(C)OC5C(O)C3O)C3COC(=O)C23)OCO4)cc(OC)c1O` (stereo unspecified) + Cc1cnc(CNC(=O)c2c(=O)c3ccc(N4CCCN(C)CC4)nc3n3c2sc2ccccc23)cn1 has an IC50 (second compound 0.0316 µM) greater than 10 µM, an IC50 (second compound 0.1 µM) greater than 10 µM and an IC50 (second compound 0.316 µM) greater than 10 µM. It also gave an IC50 (second compound 1 µM) greater than 10 µM, an IC50 (second compound 3.16 µM) greater than 10 µM and an IC50 (second compound 10 µM) greater than 10 µM. The viability, T/C [1] was 113%, the viability, T/C [13] was 98.3% and the viability, T/C [2] was 101%. For the same compound, the viability, T/C [14] was 91.5%, the viability, T/C [15] was 84.5% and the viability, T/C [16] was 82.4%. The viability, T/C [3] was 116%, the viability, T/C [17] was 107% and the viability, T/C [4] was 90.2%. For the same compound, the viability, T/C [18] was 100%, the viability, T/C [19] was 95.2% and the viability, T/C [20] was 81.9%. It also gave a viability, T/C [5] of 108%, a viability, T/C [21] of 105% and a viability, T/C [6] of 102%. It also gave a viability, T/C [22] of 91.1%, a viability, T/C [23] of 84.8% and a viability, T/C [24] of 79.3%. It also gave a viability, T/C [7] of 105%, a viability, T/C [25] of 87.2% and a viability, T/C [8] of 97.8%. For the same compound, the viability, T/C [26] was 89.6%, the viability, T/C [27] was 84.8% and the viability, T/C [28] was 76.1%. It also gave a viability, T/C [9] of 79.8%, a viability, T/C [29] of 81.4% and a viability, T/C [10] of 87.6%. The viability, T/C [30] was 84.2%, the viability, T/C [31] was 83.5% and the viability, T/C [32] was 71.1%. It also gave a viability, T/C [11] of 81.7%, a viability, T/C [33] of 79.5% and a viability, T/C [12] of 76.7%. It also gave a viability, T/C [34] of 82.4%, a viability, T/C [35] of 78.3% and a viability, T/C [36] of 70.7%.

For `Nc1ccn(C2OC(CO)C(O)C2(F)F)c(=O)n1` (stereo unspecified) + Cc1cnc(CNC(=O)c2c(=O)c3ccc(N4CCCN(C)CC4)nc3n3c2sc2ccccc23)cn1, the IC50 (second compound 0.0316 µM) was greater than 10 µM, the IC50 (second compound 0.1 µM) was greater than 10 µM and the IC50 (second compound 0.316 µM) was greater than 10 µM. It also gave an IC50 (second compound 1 µM) greater than 10 µM, an IC50 (second compound 3.16 µM) greater than 10 µM and an IC50 (second compound 10 µM) greater than 10 µM. It also gave a viability, T/C [1] of 105%, a viability, T/C [13] of 104% and a viability, T/C [2] of 82%. The viability, T/C [14] was 98.1%, the viability, T/C [15] was 74.9% and the viability, T/C [16] was 70.3%. It also gave a viability, T/C [3] of 96.8%, a viability, T/C [17] of 113% and a viability, T/C [4] of 82.9%. It also gave a viability, T/C [18] of 82.4%, a viability, T/C [19] of 81.5% and a viability, T/C [20] of 84.4%. For the same compound, the viability, T/C [5] was 97%, the viability, T/C [21] was 97.9% and the viability, T/C [6] was 88.6%. For the same compound, the viability, T/C [22] was 78.3%, the viability, T/C [23] was 89.9% and the viability, T/C [24] was 78.8%. It also gave a viability, T/C [7] of 85.5%, a viability, T/C [25] of 87.4% and a viability, T/C [8] of 80.2%. It also gave a viability, T/C [26] of 77%, a viability, T/C [27] of 69.2% and a viability, T/C [28] of 70.6%. It also gave a viability, T/C [9] of 75%, a viability, T/C [29] of 76.3% and a viability, T/C [10] of 78%. It also gave a viability, T/C [30] of 62.9%, a viability, T/C [31] of 70.9% and a viability, T/C [32] of 68.4%. The viability, T/C [11] was 72.4%, the viability, T/C [33] was 75.1% and the viability, T/C [12] was 71.4%. For the same compound, the viability, T/C [34] was 69.2%, the viability, T/C [35] was 70.9% and the viability, T/C [36] was 74.8%.
